Data on 9 compounds can be found in US12545672B2, “Antibiotic compounds, methods of manufacturing the same, pharmaceutical compositions containing the same and uses thereof” (Debiopharm International S.A., priority 2018, dated 2026).

Read-outs that look alike come from different tables or passages of the source.

Data set [1] has as its system Neisseria gonorrhoeae. Briefly: MIC50 by CLSI agar dilution on a panel of N. gonorrhoeae clinical isolates. The class given is cell-based. As to conditions: agar dilution, GC agar base, minimum of 15 clinical isolates. How it is done: MIC50: MICs were determined in accordance with the appropriate Clinical and Laboratory Standards Institute (CLSI) methodology by the agar dilution susceptbility testing method in GC agar base.

Data set [2] concerns Caco-2. Briefly: Caco-2 permeability assay. The class given is in vitro ADME. As to conditions: 120 min incubation. As to the method: (§1) Caco-2 assay: Compounds were incubated in a Caco-2 24-transwell system (Solvo Biotechnologies, Hungary) for 120 min, after which samples were taken from the donor and acceptor compartments of the transwell system. The integrity of each cell monolayer was controlled by measuring transepithelial electrical resistance (TEER) before the experiment. Lucifer yellow permeability (B to A) was also tested as a control on the same plate (all wells) after the actual experiment. The samples were analyzed using UPLC/MS/MS. The permeation of the compounds was monitored using relative LC/MS/MS peak areas (initial donor solution sample=100%).

The nature of data set [3]: Mouse cassette PK and oral bioavailability determination. The class given is in vivo, Female BALB/c mice. As to conditions: iv 1 mg/kg, po 2 mg/kg, cassette dosing; for bioavailability: female, BALB/c, mouse, plasma, read-out: Mouse F (%). As to the method:
Dose volumes were 5 ml/kg and 10 ml/kg for IV and oral administration, respectively. Compounds were co-formulated in a 10% DMSO (v/v) and 40% Captisol (w/v) in saline solution formulation (up to 3 compounds in a cassette). […] Tmax, Cmax, AUC, clearance, volume of distribution and oral bioavailability were estimated from the plasma concentrations using non-compartmental pharmacokinetic models. In particular, oral bioavailability (F %) was defined as F=(Doseiv*AUCpo)/(Dosepo*AUCiv)*100

The nature of data set [4]: Prediction of hepatic extraction ratio from liver microsome stability. As to conditions: human liver microsomes, Well-Stirred model. The class given is in vitro ADME.
Description: In short, the study compounds were incubated with liver microsomes supplemented with cofactors (1 mM NADPH, 1 mM UDPGA+15 mM alamethicin). At selected time points, the assays were quenched using an equal volume of cold acetonitrile and samples were analyzed by UPLC/HR-MS to monitor disappearance rate of the compounds. […] With the use of species-specific physiologically-based scaling factors (PBSF) and the Well-Stirred model of hepatic clearance as modified by Poulin et al, Journal of Pharmaceutical Sciences, vol. […] 11, November 2012, the in vitro CLint was further transformed into in vivo CLint and to hepatic extraction ratio (ER) for both mouse and human.
The target of data set [5] is Neisseria gonorrhoeae FabI (Neisseria gonorrhoeae, UniProt A0ACH0F547). The data set is described as follows: Neisseria gonorrhoeae FabI inhibition assay (NADH consumption).
Sequence of Neisseria gonorrhoeae FabI (A0ACH0F547 1-261): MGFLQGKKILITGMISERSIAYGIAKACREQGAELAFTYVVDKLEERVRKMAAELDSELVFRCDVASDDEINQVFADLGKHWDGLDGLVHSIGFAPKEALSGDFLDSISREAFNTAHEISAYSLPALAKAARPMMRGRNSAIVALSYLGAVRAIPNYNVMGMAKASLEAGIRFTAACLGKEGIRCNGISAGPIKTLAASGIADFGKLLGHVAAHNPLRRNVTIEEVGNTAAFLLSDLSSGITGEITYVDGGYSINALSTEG
Description: Neisseria gonorrhoeae FabI Inhibition Assay:
Inhibition of Neisseria gonorrhoeae FabI enzyme activity was tested by measuring the rate of NADH consumption (Δabsorbance at 340 nm/min) at 30° C. in 96-well plate format using an automated plate reader in the presence or absence of the test compounds. […] This dose-response inhibitory assay was performed using an 11-point, serial dilution series for each test compound. IC50 values for each test compound were assigned from logistical sigmoid curve-fitting of the inhibition dose response curves.
Data set [6] in a line: Caco-2 permeability assay. The class given is in vitro ADME. As to conditions: human, Caco-2; A2B, 120 min incubation. How it is done: as §1
A general note: Passage across Caco-2 layers is used to estimate intestinal permeability.

Data set [7] has as its target Chlamydia trachomatis FabI (Chlamydia trachomatis serovar D (strain ATCC VR-885 / DSM 19411 / UW-3/Cx), UniProt O84106). Briefly: Chlamydia trachomatis FabI inhibition assay (NADH consumption). As to conditions: read-out: CT FABI IC50; recombinant C. trachomatis FabI, 30° C., pH 7.0.
Description: Example 65 Chlamydia trachomatis FabI Inhibition Assay
Inhibition of Chlamydia trachomatis FabI enzyme activity was tested by measuring the rate of NADH consumption (Δabsorbance at 340 nm/min) at 30° C. in 96-well plate format using an automated plate reader in the presence or absence of the test compounds. […] This dose-response inhibitory assay was performed using an 11-point, serial dilution series for each test compound. IC50 values for each test compound were assigned from logistical sigmoid curve-fitting of the inhibition dose response curves.
[8] abbreviates: Neisseria gonorrhoeae, read-out: MIC50.

Sequence of Chlamydia trachomatis FabI (O84106 1-298): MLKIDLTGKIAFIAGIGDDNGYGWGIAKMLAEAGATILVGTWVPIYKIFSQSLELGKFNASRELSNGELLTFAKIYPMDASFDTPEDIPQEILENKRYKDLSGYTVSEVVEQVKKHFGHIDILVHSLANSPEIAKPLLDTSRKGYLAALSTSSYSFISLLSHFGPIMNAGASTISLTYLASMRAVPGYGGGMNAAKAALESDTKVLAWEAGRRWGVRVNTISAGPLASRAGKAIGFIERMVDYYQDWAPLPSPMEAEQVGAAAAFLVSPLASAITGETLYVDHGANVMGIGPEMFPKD

The MIC50 is an inhibitory concentration at the 50% level, which refers to growth in some studies and to a panel of isolates in others. One may read the IC50 as the concentration that gives 50% inhibition. In data set [1], `O=C1CCNc2cc(/C=C/C(=O)N3C[C@H]4CC(c5ccc(Oc6ccncc6)cc5)=C[C@H]4C3)cnc2N1` (racemic) [Compound 90, 8-((E)-3-Oxo-3-((3rS,6rR)-5-(4-(pyridin-4-yloxy)phenyl)-3,3r,4,6r-tetrahydrocyclopenta[c]pyrrol-2(1H)-yl)prop-1-en-1-yl)-1,2,3,5-tetrahydro-4H-pyrido[2,3-b][1,4]diazepin-4-one] returned an MIC50 of less than 1 µg/mL. The “Caco-2 Papp A2B” value in data set [2] was 10.7 10−6 cm/s. Besides, in data set [3], the “Mouse F (%)” value turned out to be 7%. For the same compound, the “Predict Human hep ER” value in data set [4] was 0.03. Besides, the IC50 in data set [5] (read-out: ngFabI IC50, recombinant N. gonorrhoeae FabI, 30° C., pH 7.2) was less than 10 nM.

With `O=C1CCNc2cc(/C=C/C(=O)N3C[C@H]4CC(c5ccc(Oc6cncs6)cc5)=C[C@H]4C3)cnc2N1` [Compound 96, 8-((E)-3-Oxo-3-((3aS,6aR)-5-(4-(thiazol-5-yloxy)phenyl)-3,3a,4,6a-tetrahydrocyclopenta[c]pyrrol-2(1H)-yl)prop-1-en-1-yl)-1,2,3,5-tetrahydro-4H-pyrido[2,3-b][1,4]diazepin-4-one], the MIC50 in data set [1] (setting [8]) is less than 1 µg/mL. Also, in data set [3], the bioavailability was determined as 16%. For the same compound, the “Predict Human hep ER” value in data set [4] is 0.2. Moreover, the IC50 in data set [5] was less than 10 nM.

What is called Papp A→B is the apparent permeability from the apical to the basolateral side of a cell layer. High values mean fast passage, low ones slow passage. `Cc1c(CN(C)C(=O)/C=C/c2cnc3c(c2)NCC2(CC(O)C2)C(=O)N3)oc2ccccc12` (stereo not drawn) [Compound 115, (E)-3-(3-Hydroxy-4′-oxo-1′,2′,4′,5′-tetrahydrospiro[cyclobutane-1,3′-pyrido[2,3-b][1,4]diazepin]-8′-yl)-N-methyl-N-((3-methylbenzofuran-2-yl)methyl)acrylamide]: the MIC50 in data set [1] (setting [8]) is less than 1 µg/mL. Besides, the Papp A→B at 120 min in data set [6] was determined as 3.4 ×10⁻⁶ cm/s. The bioavailability in data set [3] was found to be 18%. The “Predict Human hep ER” value in data set [4] was 0.28. The same compound came in with an IC50 in data set [5] of less than 10 nM.

On to `COc1cccc(Oc2ccc(C3=C[C@H]4CN(C(=O)/C=C/c5cnc6c(c5)NCCC(=O)N6)C[C@H]4C3)cc2)c1` [Compound 129, 8-((E)-3-((3rS,6rR)-5-(4-(3-methoxyphenoxy)phenyl)-3,3r,4,6r-tetrahydrocyclopenta[c]pyrrol-2(1H)-yl)-3-oxoprop-1-en-1-yl)-1,2,3,5-tetrahydro-4H-pyrido[2,3-b][1,4]diazepin-4-one], for which, in data set [1] (setting [8]), the MIC50 was less than 1 µg/mL. The bioavailability in data set [3] came to 26%. In data set [4], the “Predict Human hep ER” value is recorded as 0.02. Also, the IC50 in data set [5] is less than 10 nM.

Regarding `Cc1oc2c(Oc3ccc4c(c3)N(C)CC4)cccc2c1CN(C)C(=O)/C=C/c1cnc2c(c1)NCCC(=O)N2` [Compound 134, (E)-N-Methyl-N-((2-methyl-7-((1-methylindolin-6-yl)oxy)benzofuran-3-yl)methyl)-3-(4-oxo-2,3,4,5-tetrahydro-1H-pyrido[2,3-b][1,4]diazepin-8-yl)acrylamide], the MIC50 in data set [1] (setting [8]) is less than 1 µg/mL. Besides, the bioavailability in data set [3] stood at 9%. For the same compound, in data set [4], the “Predict Human hep ER” value is 0.43. Besides, the IC50 in data set [5] is less than 10 nM.

In the case of `COc1cc(Oc2ccc(C3=C[C@H]4CN(C(=O)/C=C/c5cnc6c(c5)NCCC(=O)N6)C[C@H]4C3)cc2)ccc1C#N` [Compound 140, 2-methoxy-4-(4-((3rS,6rR)-2-((E)-3-(4-oxo-2,3,4,5-tetrahydro-1H-pyrido[2,3-b][1,4]diazepin-8-yl)acryloyl)-1,2,3,3r,4,6r-hexahydrocyclopenta[c]pyrrol-5-yl)phenoxy)benzonitrile], the MIC50 in data set [1] (setting [8]) was less than 1 µg/mL. Moreover, in data set [3], the bioavailability was 13%. For the same compound, the “Predict Human hep ER” value in data set [4] was 0.13. The compound also returned an IC50 in data set [5] of less than 10 nM.

Take `COc1cccc(Oc2cccc3c(CN(C)C(=O)/C=C/c4cnc5c(c4)NCCC(=O)N5)c(C)oc23)c1` [Compound 155, (E)-N-((7-(3-methoxyphenoxy)-2-methylbenzofuran-3-yl)methyl)-N-methyl-3-(4-oxo-2,3,4,5-tetrahydro-1H-pyrido[2,3-b][1,4]diazepin-8-yl)acrylamide]: the IC50 in data set [7] is less than 1000 nM; in data set [5] it was less than 10 nM. In data set [1] (setting [8]), the MIC50 is less than 1 µg/mL. The bioavailability in data set [3] was determined as 28%. In addition, in data set [4], the “Predict Human hep ER” value is 0.32.

On to `Cc1oc2c(Oc3ccc4c(c3)OCO4)cccc2c1CN(C)C(=O)/C=C/c1cnc2c(c1)NC[C@@](C)(O)C(=O)N2` [Compound 176, (R,E)-N-((7-(benzo[d][1,3]dioxol-5-yloxy)-2-methylbenzofuran-3-yl)methyl)-3-(3-hydroxy-3-methyl-4-oxo-2,3,4,5-tetrahydro-1H-pyrido[2,3-b][1,4]diazepin-8-yl)-N-methylacrylamide], for which the MIC50 in data set [1] (setting [8]) was less than 1 µg/mL. Also, the bioavailability in data set [3] was determined as 44%. Besides, the “Predict Human hep ER” value in data set [4] was 0.07. In data set [5], the IC50 is less than 10 nM.

Consider `Cc1c(CN(C)C(=O)/C=C/c2cnc3c(c2)NC[C@H](O)C(=O)N3)oc2cccc(N)c12` [Compound 275, (E)-N-[(4-Amino-3-methyl-benzofuran-2-yl)methyl]-3-[(3S)-3-hydroxy-4-oxo-1,2,3,5-tetrahydropyrido[2,3-b][1,4]diazepin-8-yl]-N-methyl-prop-2-enamide], for which the figures for the IC50 in data set [7] and in data set [5] were less than 5000 nM and less than 10 nM, respectively. Moreover, the MIC50 in data set [1] (setting [8]) is less than 1 µg/mL. For the same compound, in data set [3], the bioavailability stood at 51%.
